Test results from article PMC11543753, “The Ortholog Receptor Or67d in Drosophila Bipectinata is able to Detect Two Different Pheromones” (Journal of Chemical Ecology, 2024).

Experiments:
[1] = test system: T1, DbipOr67d (Drosophila bipectinata); assay: single sensillum recording, spike rate of at1 neurons; assay type: cell-based; conditions: agonist; odor 10^-3 (v/v) in dichloromethane, 0.5 s puff; D. melanogaster at1 neurons expressing DbipOr67d; also tested in wild-type D. bipectinata at1
T1 construct: with Odorant receptor coreceptor (Drosophila melanogaster)

D. melanogaster Or67d = target: T2, D. melanogaster Or67d (Drosophila melanogaster, UniProt Q9VT92); assay: as above; assay type: cell-based; conditions: agonist; odor 10^-3 (v/v) in dichloromethane, 0.5 s puff; native at1 neurons of wild-type CS flies
T2 construct: native receptor in at1 trichoid sensillum neurons of wild-type flies; with Odorant receptor coreceptor
T2 sequence (Q9VT92 1-391): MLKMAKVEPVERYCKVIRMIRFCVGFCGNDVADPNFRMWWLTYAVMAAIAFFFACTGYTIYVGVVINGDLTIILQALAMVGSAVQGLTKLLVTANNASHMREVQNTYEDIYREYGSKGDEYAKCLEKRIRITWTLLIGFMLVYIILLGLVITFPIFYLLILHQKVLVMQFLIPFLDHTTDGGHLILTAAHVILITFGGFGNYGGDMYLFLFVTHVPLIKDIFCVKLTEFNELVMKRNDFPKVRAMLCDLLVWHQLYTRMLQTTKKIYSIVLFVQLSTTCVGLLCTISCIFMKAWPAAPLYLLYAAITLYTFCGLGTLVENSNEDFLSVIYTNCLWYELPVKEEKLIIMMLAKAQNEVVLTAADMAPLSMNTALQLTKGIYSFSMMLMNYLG
T2 sequence (Q9VNB5 1-486 partner): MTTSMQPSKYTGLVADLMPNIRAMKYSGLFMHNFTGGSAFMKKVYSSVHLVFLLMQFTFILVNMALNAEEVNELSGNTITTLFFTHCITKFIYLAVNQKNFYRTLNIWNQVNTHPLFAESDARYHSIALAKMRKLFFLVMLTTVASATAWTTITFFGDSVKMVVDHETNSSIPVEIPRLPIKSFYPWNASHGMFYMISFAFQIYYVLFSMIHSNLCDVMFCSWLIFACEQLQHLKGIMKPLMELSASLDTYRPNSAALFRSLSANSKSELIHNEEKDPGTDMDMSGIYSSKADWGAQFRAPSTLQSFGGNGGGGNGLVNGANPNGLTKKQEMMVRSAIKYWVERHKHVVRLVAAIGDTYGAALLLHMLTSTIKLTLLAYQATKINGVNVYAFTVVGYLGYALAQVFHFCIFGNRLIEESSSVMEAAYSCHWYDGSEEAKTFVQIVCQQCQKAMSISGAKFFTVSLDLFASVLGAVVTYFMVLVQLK

| SMILES | single sensillum recording, spike rate of at1 neurons [1] | single sensillum recording, spike rate of at1 neurons (D. melanogaster Or67d) |
| --- | --- | --- |
| CCCCCCCC/C=C\CCCCCCCCCCOC(C)=O [Z11-20:Ac, (Z)-11-eicosen-1-yl acetate] | Drosophila melanogaster OSNs ectopically expressing D.bipOr67d respond to cVA and Z11-20:Ac. | – |
| CCCCCC/C=C\CCCCCCCCCCOC(C)=O [cVA, (Z)-11-octadecen-1-yl acetate] | Drosophila melanogaster OSNs ectopically expressing D.bipOr67d respond to cVA and Z11-20:Ac. | D. melanogaster CS flies exhibited significant responses only to cVA (Fig. 1c) |
